Measured values taken from publication PMC9926234, “Iterative computational design and crystallographic screening identifies potent inhibitors targeting the Nsp3 macrodomain of SARS-CoV-2” (Proceedings of the National Academy of Sciences of the …, 2023).
“And” between values parts separate entries of the source, which are not always exact repeats. Identical values can stand only once. Like-named read-outs stand apart in the source and are kept apart here.

Tests used:
[1] = target: T1, SARS-CoV-2 NSP3 Mac1 (Severe acute respiratory syndrome coronavirus 2, UniProt P0DTD1); type: binding; details: for Refined occupancy: ligand occupancy after refinement (phenix.refine)
[2] = tested on: SARS-CoV-2 NSP3 Mac1; experiment: Overall hit call (binding in crystallographic soaking or the HTRF-based binding assay)
Source text: Supplement pnas.2212931120.sd01.xlsx, sheet "Compound Summary" | column: HIT*

[3] = target: T1, SARS-CoV-2 NSP3 Mac1; experiment: biochemical; type: binding
[4] = target: T1, SARS-CoV-2 NSP3 Mac1; parameters: contains a conserved macrodomain enzyme (Mac1); Differential scanning fluorimetry of Mac1, maximum thermal upshift; details: maximum shift over tested concentrations; binder
[5] = PanDDA event map 1-BDC, crystal soak, Compound_concentration 100 mM, PanDDA run dmso_34 or nohits_35 per dataset
[6] = PanDDA event map, 1 minus background density correction, crystal soaking of Mac1
[7] = crystal soak, Compound_concentration 100 mM, Echo dispense 40 nl, PanDDA run dmso_34 or nohits_35 per dataset
[8] = PanDDA 1-BDC of the event, compound stock 100 mM, Echo dispense volume 80 nl
[9] = crystal soak, compound stock 100 mM, Echo dispense volume 80 nl
[10] = ligand modeled in structure, compound stock 100 mM, Echo dispense volume 80 nl
[11] = HTRF ADPr-conjugated peptide displacement, read-out: IC50
[12] = HTRF ADPr-peptide displacement from SARS-CoV-2 Mac1, read-out: IC50
[13] = PanDDA 1-BDC of the event, compound stock 100 mM, Echo dispense volume 40 nl
[14] = crystal soak, compound stock 100 mM, Echo dispense volume 40 nl
[15] = PanDDA event map, crystal soak, Compound_concentration 100 mM, Echo_dispense_volume 40 nl
[16] = crystal soak, Compound_concentration 100 mM, Echo_dispense_volume 40 nl, PanDDA run (background map) dmso_34, nohits_35 or nohits_62
[17] = ligand modeled, crystal soak, Compound_concentration 100 mM, Echo_dispense_volume 40 nl

SMILES	1-BDC [1, 5]	1-BDC (PanDDA) [1, 6]	PanDDA hit? [1, 7]	Refined occupancy ([1]; crystal soaking of Mac1)	HIT* [2]	1-BDC [1, 8]	PanDDA hit? [1, 9]	IC50 [3, 11]	Ki ([3]; read-out: Ki***)	also measured
O[C@H]1CCCC[C@H]1Nc1ncnc2[nH]ccc12 (relative stereo) [SRH-0015]	0.13	0.13	TRUE	26	Y	–	–	–	–	Modeled? ([1]; ligand modeled in this dataset, crystal soak, Compound_concentration 100 mM): TRUE; IC50 ([3]; IC50, HTRF ADPr-peptide displacement from SARS-CoV-2 Mac1): 132 µM; IC50 ([3]; IC50 [µM], HTRF ADPr-conjugated peptide displacement): 132 µM; Ki ([3]; Ki*** [µM]): 115 µM
CC1(C)CCC(C(=O)O)CN1C(=O)c1ncnc2[nH]ccc12 (stereo not shown) [F2804, FRESH00012962804]	–	–	–	–	–	–	–	–	–	DSF max dTma [4]: 0.62 °C
CC1(C(=O)O)CCN(C(=O)Cc2c[nH]c3nccc(Cl)c23)C1 (stereo not shown) [F4848, FRESH00014134848]	–	–	–	–	–	–	–	–	–	DSF max dTma [4]: 0.07 °C
O=C(O)CC1CN(c2ncnc3[nH]c4cc(F)ccc4c23)CC2(CCC2)O1 (stereo not shown) [LL114_0024]	0.06	0.11	TRUE	22	Y	0.11	TRUE	19.7 µM	17.1 µM	Modeled? [1, 10]: TRUE; IC50 [3, 12]: 19.6 µM and 20 µM
Cl.O=C(O)C1CN(c2ncnc3[nH]c4cc(F)ccc4c23)CCO1 (stereo not shown) [LL114_0033]	0.15	0.15	TRUE	30	Y	–	–	40.4 µM	35.2 µM	1-BDC [1, 13]: 0.15; PanDDA hit? [1, 14]: TRUE; Modeled? ([1]; ligand modeled in structure, compound stock 100 mM, Echo dispense volume 40 nl): TRUE
O=C(O)C(O)C1CCCN(c2ncnc3[nH]c4cc(F)ccc4c23)C1 (stereo not shown) [LL114_0036]	0.2	0.24	TRUE	48	Y	0.24	TRUE	34.1 µM	29.7 µM	Modeled? [1, 10]: TRUE
O=C(O)[C@H]1[C@@H]2CN(c3ncnc4[nH]c5cc(F)ccc5c34)CC[C@@H]21 [LL114_0037]	–	–	–	–	Y	–	–	37.6 µM	32.7 µM	–
O=C(O)CCC1CN(c2ncnc3[nH]c4cc(F)ccc4c23)CCO1 (stereo not shown) [LL114_0041]	0.15	0.16	TRUE	32	Y	0.15	TRUE	69.2 µM	60.2 µM	1-BDC [1, 15]: 0.16; PanDDA hit? [1, 16]: TRUE; Modeled? [1, 17]: TRUE
Nc1nc(N2CC3(CCC3)C(F)(C(=O)O)C2)c2c(n1)[nH]c1cc(F)ccc12 (stereo not shown) [LL123_0016]	–	0.17	–	34	Y	–	–	24.5 µM	21.3 µM	1-BDC ([1]; PanDDA event map background density correction, crystal soak, compound concentration 100 mM): 0.17; 1-BDC [1, 15]: 0.15; PanDDA hit? [1, 16]: TRUE; Modeled? ([1]; ligand modeled in the crystal structure, crystal soak, compound concentration 100 mM): TRUE
O=C(O)C1CN(c2ncnc3[nH]c4cc(F)ccc4c23)CC12CCC2 (stereo not shown) [LL123_0020]	0.13	0.17	TRUE	34	Y	0.12 and 0.17	TRUE	13.5 µM	11.7 µM	1-BDC [1, 15]: 0.17; PanDDA hit? [1, 16]: TRUE; Modeled? [1, 17]: TRUE; IC50 [3, 12]: 14 µM
O=C(O)C1(F)CN(c2ncnc3[nH]c4cc(F)ccc4c23)CC12COC2 (stereo not shown) [LL123_0031]	–	0.08	–	16	Y	0.08	TRUE	23.2 µM	20.2 µM	Modeled? [1, 10]: TRUE; IC50 [3, 12]: 23 µM
O=C(O)C1(F)CN(c2ncnc3[nH]c4cc(F)ccc4c23)CC1C1CC1 (stereo not shown) [LL123_0032]	0.1	0.12	TRUE	24	Y	0.14	TRUE	41.8 µM	36.4 µM	1-BDC [1, 15]: 0.12; PanDDA hit? [1, 16]: TRUE; Modeled? [1, 17]: TRUE
CN(Cc1ccccn1)c1ncnc2[nH]c3cc(F)ccc3c12 [LRM-0028]	–	0.15	–	30	Y	0.15	TRUE	–	–	1-BDC [1, 13]: 0.14; PanDDA hit? [1, 14]: TRUE; Modeled? [1, 10]: TRUE
CC1CC(C(=O)O)N1C(=O)c1cc(O)nc2ccc(F)cc12.O=C(O)C(F)(F)F (stereo not shown) [R0658, REAL300007260658]	–	–	–	–	–	–	–	–	–	DSF max dTma [4]: 0.37 °C
CC1C(C(=O)O)CCCN1S(=O)(=O)c1c[nH]c2ncc(Cl)cc12 (stereo not shown) [R3575, REAL300016493575]	–	–	–	–	–	–	–	–	–	DSF max dTma [4]: 0.15 °C
Nc1ncnc(N2CCCC(CCC(=O)O)C2)c1Cl (stereo not shown) [R6134, REAL250003296134]	–	–	–	–	–	–	–	–	–	DSF max dTma [4]: 0.34 °C
O=S1(=O)CC(CNc2ncnc3[nH]ccc23)C1 [SRH-0005]	–	–	–	18	Y	–	–	–	–	1-BDC [1, 6]: 0.09; Modeled? ([1]; ligand modeled from this dataset, compound concentration 100 mM): TRUE
